According to paper PMC11891579, “Fluorescent PyrAte-(S)-citalopram conjugates enable imaging of the serotonin transporter in living tissue” (Chemical Science, 2025):
pIC50: −log10 of the molar value. “Also recorded” adds a separate entry of the source.

Legend:
YhSERT = molecular target: T1, YhSERT (Homo sapiens, UniProt P31645); assay: radioligand uptake inhibition assay ([3H]5HT); format: cell-based; conditions: for pIC50: HEK293 stably expressing YhSERT, 100 nM [3H]5HT, mean and SD, N = 3-6, read-out: IC50, uptake inhibition at SERT (YhSERT); for selectivity to SERT vs. DAT / selectivity to SERT vs. NET / selectivity to SERT vs. OCT3: from uptake inhibition IC50; for decrease of SERT affinity (IC50) compared to (S)-citalopram: uptake inhibition IC50; for Hill coefficient nH at SERT: uptake inhibition curve
T1 construct: expressed in transfected cells
T1 sequence (P31645 whole entry): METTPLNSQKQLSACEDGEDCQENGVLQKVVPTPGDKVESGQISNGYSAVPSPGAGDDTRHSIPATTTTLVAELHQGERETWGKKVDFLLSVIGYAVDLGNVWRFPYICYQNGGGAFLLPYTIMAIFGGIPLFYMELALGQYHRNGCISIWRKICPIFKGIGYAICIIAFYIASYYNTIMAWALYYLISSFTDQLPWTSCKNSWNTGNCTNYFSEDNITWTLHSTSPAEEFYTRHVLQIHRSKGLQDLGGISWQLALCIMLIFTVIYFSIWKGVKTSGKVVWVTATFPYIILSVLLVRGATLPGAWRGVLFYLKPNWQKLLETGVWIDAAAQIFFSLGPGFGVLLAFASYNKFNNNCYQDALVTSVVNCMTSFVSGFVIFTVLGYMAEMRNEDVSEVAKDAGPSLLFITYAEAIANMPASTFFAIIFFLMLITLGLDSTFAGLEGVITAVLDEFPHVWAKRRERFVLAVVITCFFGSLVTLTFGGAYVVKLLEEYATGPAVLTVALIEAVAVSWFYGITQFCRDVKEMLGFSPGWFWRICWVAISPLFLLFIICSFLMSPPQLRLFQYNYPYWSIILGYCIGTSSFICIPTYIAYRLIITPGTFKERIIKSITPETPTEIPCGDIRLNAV
Protocol: 1. Biological characterization
1.1. Experimental methods
Buffer and solution compositions (in mM) are as follows:
Krebs-HEPES buffer (KHB): 120 NaCl, 3 KCl, 2 CaCl2, 2 MgCl2, 20 glucose, 10 HEPES NaOH, pH = 7.3 – 7.4. […]
10 mM glucose, 1.25 mM NaH2PO4, pH = 7.4 (oxygenated with 95% O2, 5% CO2).
Human embryonic kidney 293 cells (HEK293) stably expressing the mCherry-tagged, YFP-tagged, and GFP-tagged human isoforms of SERT (mCherry-SERT, YhSERT, GhSERT), DAT (YhDAT), NET (hNET), and OCT3 (YhOCT3) were cultured in Dulbecco's modified Eagle's medium (DMEM) with high glucose (4.5 g/L) and l-glutamine (584 mg/L), supplemented with 10% fetal calf serum (FCS), 100 units/mL penicillin and 100 µg/mL streptomycin. The cells were cultured in a humidified atmosphere (37 °C, 5% CO2). Geneticin (50 µg/mL), Blasticidin (6 µg/mL), and Zeocin® (150 µg/mL) were added to maintain the selection pressure for the stable cell lines. Cells were typically seeded 24 hours prior to the experiments.
For uptake inhibition experiments, cells were seeded at 3.6 x 10^4 cells/0.2 mL into 96-well plates coated […]
with poly-d-lysine (PDL). […]
For uptake inhibition experiments, the cell medium was aspirated and the cells were washed once with 0.2 mL/well KHB at room temperature. The cells were pre-incubated with increasing concentrations of the substance of interest, diluted in KHB (0.05 mL/well). The pre-incubation solution was replaced with 0.05 mL/well KHB solution still containing the substance of interest and additionally the tritiated substrate (100 nM [3H]DA for YhDAT; 100 nM [3H]5HT for YhSERT; 20 nM and 50 nM [3H]MPP+ for hNET and YhOCT3), after 6 minutes (YhSERT), 5 minutes (YhDAT, hNET), or 10 minutes (YhOCT3). Substrate uptake was stopped after one minute (for [3H]DA and [3H]5HT), three minutes, or […]
ten minutes (for [3H]MPP+), by exchange of the substrate-containing buffer with 0.2 mL ice-cold KHB.
The KHB was aspirated immediately. Cells were lysed and prepared for [3H] content analysis by adding 0.2 mL Ultima Gold™ XR liquid scintillation cocktail. Measurements were performed in a 1450 MicroBeta microplate liquid scintillation counter. Non-specific uptake was determined in the presence of 30 µM paroxetine (for YhSERT), 50 µM GBR12909 (for YhDAT and hNET), or 100 µM decynium-22 (for YhOCT3). […]

[1] = molecular target: T2, endogenously expressed SERT (Mus musculus, UniProt Q60857); assay: two-photon microscopy of acute mouse brain slices; conditions: for staining of acute mouse brain slices (DS, SNr, DR): 500 nM, 30 min, reduced by escitalopram or paroxetine
T2 construct: label endogenously expressed SERT; from tissue; host or cells: acute coronal brain slices of C57/BL-6 and Pet1-eYFP mice (dorsal striatum, substantia nigra reticulata, dorsal raphe)
T2 sequence (Q60857 whole entry): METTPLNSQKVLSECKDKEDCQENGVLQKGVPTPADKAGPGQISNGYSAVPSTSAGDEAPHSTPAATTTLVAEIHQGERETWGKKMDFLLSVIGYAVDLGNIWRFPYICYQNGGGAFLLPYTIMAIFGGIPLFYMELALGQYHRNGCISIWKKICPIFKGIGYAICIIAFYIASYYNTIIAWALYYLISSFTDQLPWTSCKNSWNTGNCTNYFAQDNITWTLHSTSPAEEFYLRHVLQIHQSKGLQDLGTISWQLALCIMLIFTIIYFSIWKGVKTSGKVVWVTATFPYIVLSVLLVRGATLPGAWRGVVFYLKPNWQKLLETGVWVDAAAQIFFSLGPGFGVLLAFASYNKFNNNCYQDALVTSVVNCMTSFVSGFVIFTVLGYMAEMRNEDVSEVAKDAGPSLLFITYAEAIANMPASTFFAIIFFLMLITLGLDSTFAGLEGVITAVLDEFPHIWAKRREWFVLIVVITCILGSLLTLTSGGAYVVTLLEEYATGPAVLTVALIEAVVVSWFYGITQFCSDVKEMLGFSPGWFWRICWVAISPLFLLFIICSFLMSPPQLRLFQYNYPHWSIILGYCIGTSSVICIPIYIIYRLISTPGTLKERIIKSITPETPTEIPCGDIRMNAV
Source text: All animal protocols were approved by the Institutional Animal Care and Use Committee (IACUC) of Columbia University, following guidelines established in the NIH Guide for the Care and Use of Laboratory Animals. All animals were caged in groups of 5 or less in a 12-hr light/dark cycle with access to food and water ad libitum.
Acute mouse brain slices preparation
Wild-type C57/BL-6 (The Jackson Laboratory, Bar Harbor, ME) and Pet1-eYFP mice were sacrificed by cervical dislocation at ages > 12 weeks. Pet1-eYFP mice (Cg-Tg(Fev-cre)1Esd/J (ePet-cre; The Jackson Laboratory) crossed with Ai32(RCLChR2(H134R)/EYFP (Ai32; The Jackson Laboratory) maintained on a 129SvEv/Tac background) were kindly provided by Dr. Mark S. Ansorge (Columbia University Irving Medical Center; Department of Psychiatry, New York, NY 10032). Mice were decapitated, and the brain was removed and placed in an ice-cold sucrose cutting solution. Coronal brain slices with 300 µm thickness were prepared using a Leica VT1200 vibratome at 0 – 4 °C. Slices containing the striatum, substantia nigra, and the raphe were transferred to oxygenated ACSF solution and allowed to equilibrate at room temperature.
Slices were incubated with PyrAte-(S)-citalopram conjugates (500 nM in ACSF) for 30 minutes at room temperature. For inhibition experiments, escitalopram (2 µM) and paroxetine (30 µM) were incubated for 15 minutes prior to addition of the test compound. Each slice was then transferred to an imaging chamber and held in place by a stainless-steel slice anchor (Warner Instruments). ACSF solutions containing the test compounds were continuously perfused throughout the imaging experiments. Structures at depths between 20 to 30 µm from the top of the slice were visualized with fluorescent signals using a Prairie Ultima multi-photon microscopy sytem: PyrAte was imaged using 810 nm excitation wavelength and 525/50 nm emission filter, eYFP was imaged using 965 nm excitation wavelength and 525/50 nm emission filter. Images were captured using Prairie View software and processed with ImageJ. Further co-localization analysis was performed using the JACoP plug-in.1 Statistical and data analysis
Data treatment and statistical analysis were performed using Microsoft Excel 2016 and GraphPad Prism v10.0. Data and statistical tests as shown in Figure 2 include individual points, mean, SEM, and P = 0.0023 as determined using two-tailed, paired t-test (t = 5.690, df = 5). Data and statistical tests as shown in Figure 5 include individual values, mean, SEM, and P values as determined using two-tailed unpaired t-test with Welch’s corrections (Fig. 5A: P = 0.0166, t = 4.665, df = 3.157; Fig. 5B: P =

SMILES | pIC50 (YhSERT) | selectivity to SERT vs. DAT (YhSERT) | selectivity to SERT vs. NET (YhSERT) [fold] | selectivity to SERT vs. OCT3 (YhSERT) [fold] | decrease of SERT affinity (IC50) compared to (S)-citalopram (YhSERT) | Hill coefficient nH at SERT (YhSERT) | staining of acute mouse brain slices (DS, SNr, DR) [1] | Pearson's correlation coefficient r, co-localization with eYFP-expressing serotonergic projections ([1]; DS, Pet1-eYFP mice) | Pearson's correlation coefficient r, co-localization with eYFP-expressing serotonergic projections ([1]; DS, in the presence of paroxetine) | Pearson's correlation coefficient r, co-localization with eYFP-expressing serotonergic projections ([1]; SNr, Pet1-eYFP mice) | Pearson's correlation coefficient r, co-localization with eYFP-expressing serotonergic projections ([1]; SNr, in the presence of paroxetine)
CCN(CC)c1ccc(-c2cc[n+]3c(-c4ccccc4)c(N4CCCC4)n(CCCC(=O)NCc4ccc5c(c4)CO[C@@]5(CCCN(C)C)c4ccc(F)cc4)c3c2)cc1 [PYR-C3-CIT, PyrAte-C3-(S)-citalopram] | 6.40 | around 10 fold | 27 | 8.2 | 10 fold | −3.0 | localization of the compound in serotonergic regions in the DS and SNr | 0.70 | 0.43 | 0.72 | 0.58
CCN(CC)c1ccc(-c2cc[n+]3c(-c4ccccc4)c(N4CCCC4)n(CCCCCCC(=O)NCc4ccc5c(c4)CO[C@@]5(CCCN(C)C)c4ccc(F)cc4)c3c2)cc1 [PYR-C6-CIT, PyrAte-C6-(S)-citalopram] | 6.08 | 2.5 fold | 15 | 2.5 | around 20 fold | −3.1 | effectively stains all three areas examined; also recorded: SERT-specific staining in acute mouse brain slices |  |  |  | 
